“And” between values parts separate entries of the source, which are not always exact repeats. Equal entries are not always repeated. Where two headings read alike, the source gives them in different places.
How the values were obtained:
rat TRPA1 [1] = biological target: T1, rat TRPA1 (Rattus norvegicus, UniProt Q6RI86); experiment: rat TRPA1-mediated elevation of intracellular Ca2+ (Fluo-4) in transfected HEK-293 cells, agonist mode; assay type: cell-based; settings: for Efficacy (%AITC 100μM): TRPA1, percentage of the effect on [Ca2+]i observed with 100 μM allylisothiocyanate (AITC); for Efficacy (%AITC 100μM) / EC50: rTRPA1-HEK-293 cells; for activity on TRPA1 channel (result in words): in vitro assays on TRPA1; for EC50: Potency EC50, TRPA1, concentration producing half-maximal increase in [Ca2+]i
T1 construct: expressed in transfected cells; host or cells: HEK-293 cells, stably transfected
T1 sequence (Q6RI86 whole entry): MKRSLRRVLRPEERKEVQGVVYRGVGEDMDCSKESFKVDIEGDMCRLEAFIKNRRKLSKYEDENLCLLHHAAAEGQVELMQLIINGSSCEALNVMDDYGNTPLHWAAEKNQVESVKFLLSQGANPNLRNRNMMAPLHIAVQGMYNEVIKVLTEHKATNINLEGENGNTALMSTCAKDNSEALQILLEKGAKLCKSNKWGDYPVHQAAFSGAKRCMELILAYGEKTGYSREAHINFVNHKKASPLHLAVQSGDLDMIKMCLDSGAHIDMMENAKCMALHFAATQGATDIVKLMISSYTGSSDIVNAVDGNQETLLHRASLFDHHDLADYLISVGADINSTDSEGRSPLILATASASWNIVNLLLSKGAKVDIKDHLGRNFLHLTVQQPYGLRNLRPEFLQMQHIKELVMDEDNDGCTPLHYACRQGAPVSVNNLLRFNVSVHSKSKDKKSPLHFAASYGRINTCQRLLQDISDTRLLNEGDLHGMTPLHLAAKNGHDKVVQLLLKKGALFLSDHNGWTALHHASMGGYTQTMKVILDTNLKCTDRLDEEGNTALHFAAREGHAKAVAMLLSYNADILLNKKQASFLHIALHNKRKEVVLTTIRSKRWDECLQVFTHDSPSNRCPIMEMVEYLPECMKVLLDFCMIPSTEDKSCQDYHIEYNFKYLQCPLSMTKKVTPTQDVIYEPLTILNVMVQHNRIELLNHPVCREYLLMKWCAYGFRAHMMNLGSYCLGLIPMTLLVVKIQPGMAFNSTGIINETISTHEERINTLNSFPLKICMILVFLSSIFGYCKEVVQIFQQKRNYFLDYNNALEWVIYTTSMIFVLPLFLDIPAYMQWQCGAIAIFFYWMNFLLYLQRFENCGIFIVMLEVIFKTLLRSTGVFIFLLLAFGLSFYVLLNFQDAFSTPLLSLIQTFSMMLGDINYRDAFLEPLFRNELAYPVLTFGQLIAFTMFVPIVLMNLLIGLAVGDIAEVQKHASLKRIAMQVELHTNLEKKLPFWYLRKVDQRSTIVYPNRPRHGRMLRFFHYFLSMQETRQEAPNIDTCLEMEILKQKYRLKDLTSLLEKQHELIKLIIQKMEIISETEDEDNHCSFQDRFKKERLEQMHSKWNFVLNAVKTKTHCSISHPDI
Procedure: (§1) Compound effects on intracellular Ca^2+ concentration ([Ca^2+]i) were determined using the selective intracellular fluorescent probe Fluo-4. Assays of the rat TRPA1-mediated elevation of intracellular Ca^2+ in transfected HEK-293 cells were performed as described. Briefly, human embryonic kidney (HEK-293) cells (stably transfected with rat TRPA1 or not transfected) were cultured in EMEM + 2 mM Glutamine + 1 % non-essential amino acids (NEAA) + 10 % FBS and maintained at 37 °C with 5 % CO2. On the day of the experiment, the cells were loaded with Fluo-4 AM (4 μM) for 1 h at room temperature, rinsed and resuspended in Tyrode’s solution (145 mM NaCl, 2.5 mM KCl, 1.5 mM CaCl2, 1.2 mM MgCl2, 10 mM d-glucose, and 10 mM HEPES, pH 7.4), and finally transferred to a quartz cuvette of a spectrofluorimeter (Perkin-Elmer LS50B, Perkin Elmer Inc, Buckinghamshire, UK); λEX = 488 nm, λEM = 516 nm) equipped with a PTP-1 Fluorescence Peltier System (PerkinElmer Life and Analytical Sciences, Waltham, MA, USA) under continuous stirring. Cell fluorescence before and after the addition of various concentrations of test compounds was measured, normalizing the effects against the response to ionomycin (4 µM). The values of the effect on [Ca^2+]i in not-transfected HEK-293 cells were used as a baseline and subtracted from the values obtained from transfected cells. Agonist efficacy was expressed as a percentage of the effect on [Ca^2+]i observed with 100 μM allylisothiocyanate (AITC). The potency of the compounds (EC50 values) was determined as the concentration required to produce half-maximal increases in [Ca^2+]i. Antagonist/desensitizing behavior as evaluated against TRPA1 agonist AITC 100 μM by adding the compound directly into the quartz cuvette 5 min before the stimulation of cells with the agonist. IC50 is expressed as the concentration exerting a half-maximal inhibition of an agonist effect, taking as 100% the effect on [Ca^2+]i exerted by the agonist alone. Dose–response curves are fitted by a sigmoidal regression with a variable slope. Curve fitting and parameter estimation were performed with a GraphPad Prism (GraphPad Software Inc., San Diego, CA). Three independent experiments were done for each determination; all determinations were performed at least in triplicate. The time-course spectra showing the increase of intracellular Ca^2+ upon application of the compounds are available in Supplementary Material (S10).

rat TRPA1 [2] = biological target: T1, rat TRPA1; experiment: Antagonist/desensitizing behavior against AITC 100 μM in rTRPA1-HEK-293 cells (5 min pre-incubation); assay type: cell-based
Procedure: as §1

[3] = system: not-transfected HEK cells; experiment: Intracellular Ca2+ elevation in not-transfected HEK-293 cells; assay type: cell-based, human; settings: compound at 100 μM
Procedure: Compound effects on intracellular Ca^2+ concentration ([Ca^2+]i) were determined using the selective intracellular fluorescent probe Fluo-4. Assays of the rat TRPA1-mediated elevation of intracellular Ca^2+ in transfected HEK-293 cells were performed as described. Briefly, human embryonic kidney (HEK-293) cells (stably transfected with rat TRPA1 or not transfected) were cultured in EMEM + 2 mM Glutamine + 1 % non-essential amino acids (NEAA) + 10 % FBS and maintained at 37 °C with 5 % CO2. On the day of the experiment, the cells were loaded with Fluo-4 AM (4 μM) for 1 h at room temperature, rinsed and resuspended in Tyrode’s solution (145 mM NaCl, 2.5 mM KCl, 1.5 mM CaCl2, 1.2 mM MgCl2, 10 mM d-glucose, and 10 mM HEPES, pH 7.4), and finally transferred to a quartz cuvette of a spectrofluorimeter (Perkin-Elmer LS50B, Perkin Elmer Inc, Buckinghamshire, UK); λEX = 488 nm, λEM = 516 nm) equipped with a PTP-1 Fluorescence Peltier System (PerkinElmer Life and Analytical Sciences, Waltham, MA, USA) under continuous stirring. Cell fluorescence before and after the addition of various concentrations of test compounds was measured, normalizing the effects against the response to ionomycin (4 µM). […] Agonist efficacy was expressed as a percentage of the effect on [Ca^2+]i observed with 100 μM allylisothiocyanate (AITC). […]

Row | SMILES | Efficacy (%AITC 100μM) (rat TRPA1 [1]) | activity on TRPA1 channel (result in words) (rat TRPA1 [1]) | activity on TRPA1 channel (result in words) (rat TRPA1 [1]; listed as sinigrin) | IC50 (rat TRPA1 [2]) | EC50 (rat TRPA1 [1]) | activity (elevation of internal Ca2+) on not-transfected HEK cells [3] | activity on TRPA1 channel (result in words) (rat TRPA1 [1]; listed as glucoputranjivin) | IC50 (rat TRPA1 [2]; compound added 5 min before stimulation with AITC 100 μM, rTRPA1-HEK-293 cells, read-out: IC50 Inhibition TRPA1 (AITC 100μM))
1 | C=CCC(=NOS(=O)(=O)O)S[C@@H]1O[C@H](CO)[C@@H](O)[C@H](O)[C@H]1O (stereo in doubt) [Compound 5, sinigrin, reference compound] | <10% | ineffective | inactive | > 100 µM |  |  |  | 
2 | CCC(C)N=C=S (stereo not shown) [Compound 4, 2-butylisothiocyanate] | 98.0% and 98.0 ± 1.0% |  |  | 12.1 ± 0.2 µM | 4.9 ± 0.2 µM | less than 1% |  | 
3 | CC(C)N=C=S [Compound 2, isopropylisothiocyanate] | 108.8% and 108.8 ± 1.6% |  |  | 10.8 ± 0.4 µM | 5.9 ± 0.4 µM | less than 1% |  | 
4 | CC(C)/C(=N/OS(=O)(=O)O)S[C@@H]1O[C@H](CO)[C@@H](O)[C@H](O)[C@H]1O [Compound 1, glucoputranjivin] | <10% | ineffective |  |  |  |  | inactive | > 100 µM
